Experimental findings from PubChem BioAssay (NCI) are described below.

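In this assay, cells in 96-well plates receive the compound at five concentrations for 48 hours. Endpoints are linearly interpolated between the surrounding concentrations. At the TGI there is no net growth.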 Some results are limits rather than exact numbers.

Some test systems named below: CCRF-CEM leukemia; HCT-116 colon; HOP-62 NSCLC; MALME-3M melanoma; MDA-MB-231 breast; NCI-H226 lung; NCI-H460 lung; SK-MEL-2 melanoma; SK-OV-3 ovarian; UACC-257 melanoma; SW-620 colon; SF-539 CNS.
Common to all, as to test: DTP human tumour cell line panel, 48 h

As to `C=C[C@@]1(O)CCCC[C@@H]1CC(Sc1ccccc1)Sc1ccccc1`, the TGI in the experiment with CCRF-CEM leukemia was greater than 100 µM; with HCT-116 colon, 31.4 µM; in the experiment with HOP-62 NSCLC, 29.5 µM; in the experiment with MALME-3M melanoma, 28 µM; in the experiment on MDA-MB-231 breast, 33.2 µM; in the experiment on NCI-H226 lung, 38.7 µM. Moreover, the TGI with NCI-H460 lung was 26.2 µM; with SK-MEL-2 melanoma, 32.3 µM; with SK-OV-3 ovarian, 31.6 µM; in the experiment with UACC-257 melanoma it was 39.6 µM.
As to `O=C(O)CC[P+](c1ccccc1)(c1ccccc1)c1ccccc1`, the concentration for total growth inhibition (TGI) in the experiment with CCRF-CEM leukemia, in the experiment on HCT-116 colon, in the experiment on HOP-62 NSCLC, in the experiment with MALME-3M melanoma, in the experiment on MDA-MB-231 breast and in the experiment on NCI-H226 lung was greater than 100 µM in each case. Moreover, the concentration for total growth inhibition (TGI) in the experiment with SK-MEL-2 melanoma was 81.8 µM; in the experiment on SK-OV-3 ovarian, greater than 100 µM; with SW-620 colon it was greater than 100 µM; in the experiment on UACC-257 melanoma, greater than 100 µM.
For the compound `Cc1ccc(NC2=NCCO2)c2c1CCC2`, the total growth inhibition concentration (TGI) is greater than 100 µM in the experiment on CCRF-CEM leukemia; 80 µM in the experiment with HCT-116 colon; greater than 100 µM in the experiment on HOP-62 NSCLC; 92.4 µM in the experiment with MALME-3M melanoma; 69.4 µM in the experiment on MDA-MB-231 breast; greater than 100 µM in the experiment with NCI-H226 lung. In addition, the TGI with NCI-H460 lung is greater than 100 µM; in the experiment with SF-539 CNS it was 56 µM; in the experiment with SK-MEL-2 melanoma, 48.9 µM; with SK-OV-3 ovarian it was greater than 100 µM; with SW-620 colon, greater than 100 µM.
Turning to `CS(=O)(=O)c1nc(-c2cc3c(c(S(C)(=O)=O)n2)CCC3)cc2c1CCCC2`, the TGI is greater than 100 µM with CCRF-CEM leukemia; greater than 100 µM in the experiment on HCT-116 colon; 78.6 µM in the experiment with HOP-62 NSCLC; greater than 100 µM with MDA-MB-231 breast; greater than 100 µM with NCI-H226 lung; greater than 100 µM in the experiment with SF-539 CNS. Further, the TGI was 59.3 µM with SK-MEL-2 melanoma, 77.7 µM in the experiment with SK-OV-3 ovarian, greater than 100 µM with SW-620 colon and greater than 100 µM in the experiment with UACC-257 melanoma.
As to `O=c1[nH]c(=O)n(COCCO)c2ccsc12`, the total growth inhibition concentration (TGI) with CCRF-CEM leukemia, in the experiment on HCT-116 colon, in the experiment on HOP-62 NSCLC, with MALME-3M melanoma, in the experiment with MDA-MB-231 breast and with NCI-H226 lung was greater than 100 µM each time. The concentration for total growth inhibition (TGI) with NCI-H460 lung, in the experiment with SF-539 CNS, in the experiment with SK-MEL-2 melanoma, in the experiment with SW-620 colon and in the experiment with UACC-257 melanoma was greater than 100 µM in each case.
As for `C[N+](C)(C)C=Nc1cccc2c1CCCC2`, the TGI in the experiment with CCRF-CEM leukemia, in the experiment on HCT-116 colon, with HOP-62 NSCLC, with MALME-3M melanoma, in the experiment with MDA-MB-231 breast and with NCI-H226 lung was greater than 100 µM throughout. Also, the TGI with SF-539 CNS, with SK-MEL-2 melanoma, in the experiment on SK-OV-3 ovarian and in the experiment on UACC-257 melanoma was greater than 100 µM throughout.
`NC(Cc1c[nH]c2cc([N+](=O)[O-])ccc12)C(=O)O` (configuration not stated): the TGI with HCT-116 colon, in the experiment on HOP-62 NSCLC, with MALME-3M melanoma, with MDA-MB-231 breast, in the experiment on NCI-H226 lung and in the experiment with NCI-H460 lung was greater than 100 µM in each case. The TGI with SF-539 CNS, in the experiment on SK-MEL-2 melanoma, in the experiment on SK-OV-3 ovarian, with SW-620 colon and in the experiment with UACC-257 melanoma was greater than 100 µM throughout.
For the compound `Oc1ccccc1C1C=C(c2ccccc2)NC(N2CCCCC2)=C1c1nc2ccccc2[nH]1` (configuration not stated), the TGI came to 47.7 µM in the experiment with CCRF-CEM leukemia; 24.6 µM in the experiment on HCT-116 colon; 27.4 µM with HOP-62 NSCLC; 29.6 µM in the experiment with MALME-3M melanoma; 24.4 µM with MDA-MB-231 breast; 35.1 µM in the experiment on NCI-H226 lung. Besides, the concentration for total growth inhibition (TGI) was found to be 28 µM in the experiment with NCI-H460 lung; 29.7 µM in the experiment on SF-539 CNS; 26.4 µM with SK-OV-3 ovarian; 30.5 µM in the experiment with SW-620 colon; 30.7 µM in the experiment with UACC-257 melanoma.
`COC(=O)c1c(C)cccc1C1CN=NC12Cc1ccc(C)c(C)c1C2=O` (configuration not stated): the TGI with CCRF-CEM leukemia is greater than 100 µM; with HCT-116 colon it was 45.6 µM; in the experiment with HOP-62 NSCLC, greater than 100 µM; in the experiment with MALME-3M melanoma, greater than 100 µM; with MDA-MB-231 breast it was greater than 100 µM; with NCI-H226 lung, greater than 100 µM. Further, the TGI in the experiment with NCI-H460 lung, with SF-539 CNS, with SW-620 colon and with UACC-257 melanoma was greater than 100 µM throughout.
For the compound `Cc1nnc2n(c1=O)CCN2C`, the total growth inhibition concentration (TGI) with CCRF-CEM leukemia, in the experiment on HCT-116 colon, in the experiment on HOP-62 NSCLC, with MALME-3M melanoma, with MDA-MB-231 breast and in the experiment with NCI-H226 lung was greater than 100 µM in each case. The TGI with NCI-H460 lung, in the experiment on SF-539 CNS, with SK-MEL-2 melanoma, in the experiment with SK-OV-3 ovarian and in the experiment with SW-620 colon was greater than 100 µM in each case.
With `CCOC(=O)c1c(C)nc2c(c1-c1cn(-c3ccccc3)nc1-c1ccccc1)C(=O)c1ccccc1-2`, the concentration for total growth inhibition (TGI) in the experiment on CCRF-CEM leukemia, in the experiment with HCT-116 colon, in the experiment on HOP-62 NSCLC, with MALME-3M melanoma, in the experiment with MDA-MB-231 breast and in the experiment with NCI-H226 lung was greater than 100 µM each time. The total growth inhibition concentration (TGI) in the experiment with SK-MEL-2 melanoma, with SK-OV-3 ovarian, with SW-620 colon and in the experiment on UACC-257 melanoma was greater than 100 µM throughout.
For `Nc1ccc(Nc2cc(=O)[nH]c(=O)[nH]2)cc1`, the concentration for total growth inhibition (TGI) in the experiment on CCRF-CEM leukemia, in the experiment with HCT-116 colon, in the experiment on HOP-62 NSCLC, in the experiment with MALME-3M melanoma, in the experiment with MDA-MB-231 breast and with NCI-H226 lung was greater than 100 µM each time. Moreover, the concentration for total growth inhibition (TGI) in the experiment with NCI-H460 lung, with SF-539 CNS, in the experiment with SK-OV-3 ovarian, in the experiment on SW-620 colon and in the experiment with UACC-257 melanoma was greater than 100 µM in each case.
Regarding `CCOc1ccc(N=NC2C(=O)N(C(=O)CC(=O)Nc3ccccc3)N=C2C)cc1` (configuration not stated), the concentration for total growth inhibition (TGI) in the experiment on CCRF-CEM leukemia, in the experiment with HCT-116 colon, in the experiment with HOP-62 NSCLC, with MALME-3M melanoma, with MDA-MB-231 breast and in the experiment with NCI-H226 lung was greater than 100 µM each time. Further, the TGI in the experiment on NCI-H460 lung, with SF-539 CNS, in the experiment with SK-MEL-2 melanoma, with SW-620 colon and with UACC-257 melanoma was greater than 100 µM each time.
